From PubChem BioAssay (NCI)
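Results reflect a 48-hour exposure of cells in 96-well plates to compound at five concentrations. TGI denotes the concentration required for complete inhibition of growth.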

Columns and labels:
Test in all cases: DTP human tumour cell line panel, 48 h
786-0 renal = system: 786-0 renal
A498 renal = system: A498 renal
A549 NSCLC = system: A549 NSCLC
ACHN renal = system: ACHN renal
BT-549 breast = system: BT-549 breast
CAKI-1 renal = system: CAKI-1 renal
CCRF-CEM leukemia = system: CCRF-CEM leukemia
COLO 205 colon = system: COLO 205 colon
DU-145 prostate = system: DU-145 prostate
EKVX NSCLC = system: EKVX NSCLC
HCT-116 colon = system: HCT-116 colon
HCT-15 colon = system: HCT-15 colon
HOP-62 NSCLC = system: HOP-62 NSCLC
HOP-92 NSCLC = system: HOP-92 NSCLC
HS 578T breast = system: HS 578T breast
HT29 colon = system: HT29 colon
IGROV1 ovarian = system: IGROV1 ovarian
K-562 leukemia = system: K-562 leukemia
KM12 colon = system: KM12 colon
LOX IMVI melanoma = system: LOX IMVI melanoma
M14 melanoma = system: M14 melanoma
MALME-3M melanoma = system: MALME-3M melanoma
MDA-MB-231 breast = system: MDA-MB-231 breast
MDA-MB-435 = system: MDA-MB-435
MDA-N = system: MDA-N
MOLT-4 leukemia = system: MOLT-4 leukemia
NCI-H226 lung = system: NCI-H226 lung
NCI-H23 lung = system: NCI-H23 lung
NCI-H522 lung = system: NCI-H522 lung
NCI/ADR-RES ovarian = system: NCI/ADR-RES ovarian
OVCAR-3 ovarian = system: OVCAR-3 ovarian
OVCAR-4 ovarian = system: OVCAR-4 ovarian
OVCAR-5 ovarian = system: OVCAR-5 ovarian
OVCAR-8 ovarian = system: OVCAR-8 ovarian
PC-3 prostate = system: PC-3 prostate
RPMI-8226 leukemia = system: RPMI-8226 leukemia
RXF 393 renal = system: RXF 393 renal
SF-268 CNS = system: SF-268 CNS
SF-295 CNS = system: SF-295 CNS
SK-MEL-2 melanoma = system: SK-MEL-2 melanoma
SK-MEL-28 melanoma = system: SK-MEL-28 melanoma
SK-MEL-5 melanoma = system: SK-MEL-5 melanoma
SK-OV-3 ovarian = system: SK-OV-3 ovarian
SN12C renal = system: SN12C renal
SNB-19 CNS = system: SNB-19 CNS
SNB-75 CNS = system: SNB-75 CNS
SR leukemia = system: SR leukemia
SW-620 colon = system: SW-620 colon
T-47D breast = system: T-47D breast
TK-10 renal = system: TK-10 renal
U251 CNS = system: U251 CNS
UACC-257 melanoma = system: UACC-257 melanoma
UACC-62 melanoma = system: UACC-62 melanoma
UO-31 renal = system: UO-31 renal
HCC-2998 colon = system: HCC-2998 colon
HL-60(TB) leukemia = system: HL-60(TB) leukemia
MCF7 breast = system: MCF7 breast
NCI-H460 lung = system: NCI-H460 lung
SF-539 CNS = system: SF-539 CNS

Measured: TGI

CC(C)(C)/C(O)=C\c1nc2ccc(C(F)(F)F)cc2[nH]c1=O
not listed: HCC-2998 colon | HL-60(TB) leukemia | MCF7 breast | NCI-H460 lung | SF-539 CNS
> 100 µM: all other assays above

CC(=O)NNc1nc(C)c(C(=O)/C=C/C=C/c2ccccc2)s1
not listed: A549 NSCLC | K-562 leukemia | PC-3 prostate | RXF 393 renal | SK-MEL-2 melanoma
> 100 µM: all other assays above
